Some results are limits rather than exact numbers.

In experiment [1] the target is T1, 3-phosphoinositide-dependent protein kinase 1 (Homo sapiens, UniProt O15530).
T1 sequence (O15530 whole entry): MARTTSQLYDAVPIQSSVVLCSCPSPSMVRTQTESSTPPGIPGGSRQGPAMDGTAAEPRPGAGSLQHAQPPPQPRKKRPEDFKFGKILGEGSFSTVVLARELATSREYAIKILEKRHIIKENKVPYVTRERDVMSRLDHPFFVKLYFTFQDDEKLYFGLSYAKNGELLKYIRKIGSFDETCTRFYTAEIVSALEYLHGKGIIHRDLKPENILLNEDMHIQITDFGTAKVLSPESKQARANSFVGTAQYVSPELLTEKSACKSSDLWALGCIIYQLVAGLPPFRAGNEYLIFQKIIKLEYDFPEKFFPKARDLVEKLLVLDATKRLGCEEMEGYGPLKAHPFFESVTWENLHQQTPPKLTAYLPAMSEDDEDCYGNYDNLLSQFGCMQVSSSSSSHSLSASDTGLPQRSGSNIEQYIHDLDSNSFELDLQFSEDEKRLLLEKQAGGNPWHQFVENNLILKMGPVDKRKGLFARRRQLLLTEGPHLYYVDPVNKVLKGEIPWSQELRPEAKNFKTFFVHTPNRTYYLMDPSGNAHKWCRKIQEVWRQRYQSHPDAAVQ
Description: Inhibition of His-tagged-truncated human PDK1 preincubated with substrate biotinylated-AKT3 for 30 mins measured after 3 hrs by Scintillation proximity assay

In experiment [2] the target is Phosphatidylinositol 4,5-bisphosphate 3-kinase catalytic subunit alpha isoform (Homo sapiens, UniProt P42336). Nature of the experiment: Inhibition of PI3Kalpha.
Experiment [3] concerns the target Ribosomal protein S6 kinase beta-1 (Homo sapiens, UniProt P23443). In words: Inhibition of p70S6K.
Experiment [4] deals with Insulin-like growth factor 1 receptor (Homo sapiens, UniProt P08069). In words: Inhibition of IGF1R.
Sequence of Insulin-like growth factor 1 receptor (P08069 31-736 limits assumed): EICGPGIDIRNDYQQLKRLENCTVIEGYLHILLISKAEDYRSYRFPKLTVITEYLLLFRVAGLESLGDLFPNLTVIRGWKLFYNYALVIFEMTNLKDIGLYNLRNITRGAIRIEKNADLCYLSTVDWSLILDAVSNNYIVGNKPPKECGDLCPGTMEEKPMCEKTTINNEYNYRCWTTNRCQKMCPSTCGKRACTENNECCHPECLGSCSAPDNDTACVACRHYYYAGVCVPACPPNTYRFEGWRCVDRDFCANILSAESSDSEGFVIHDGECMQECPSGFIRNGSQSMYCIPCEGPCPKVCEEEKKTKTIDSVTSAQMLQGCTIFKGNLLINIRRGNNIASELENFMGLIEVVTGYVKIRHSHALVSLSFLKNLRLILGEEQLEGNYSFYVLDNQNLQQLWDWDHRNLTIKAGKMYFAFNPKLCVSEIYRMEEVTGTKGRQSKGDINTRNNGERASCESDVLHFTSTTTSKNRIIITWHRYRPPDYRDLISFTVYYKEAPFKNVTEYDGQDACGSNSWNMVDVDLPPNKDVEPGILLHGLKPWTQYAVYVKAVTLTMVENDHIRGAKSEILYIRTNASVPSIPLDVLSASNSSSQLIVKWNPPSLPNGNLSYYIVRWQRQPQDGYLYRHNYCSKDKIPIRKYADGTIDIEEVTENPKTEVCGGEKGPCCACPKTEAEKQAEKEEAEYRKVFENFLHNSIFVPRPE
Sequence of Insulin-like growth factor 1 receptor (P08069 741-1367 limits assumed): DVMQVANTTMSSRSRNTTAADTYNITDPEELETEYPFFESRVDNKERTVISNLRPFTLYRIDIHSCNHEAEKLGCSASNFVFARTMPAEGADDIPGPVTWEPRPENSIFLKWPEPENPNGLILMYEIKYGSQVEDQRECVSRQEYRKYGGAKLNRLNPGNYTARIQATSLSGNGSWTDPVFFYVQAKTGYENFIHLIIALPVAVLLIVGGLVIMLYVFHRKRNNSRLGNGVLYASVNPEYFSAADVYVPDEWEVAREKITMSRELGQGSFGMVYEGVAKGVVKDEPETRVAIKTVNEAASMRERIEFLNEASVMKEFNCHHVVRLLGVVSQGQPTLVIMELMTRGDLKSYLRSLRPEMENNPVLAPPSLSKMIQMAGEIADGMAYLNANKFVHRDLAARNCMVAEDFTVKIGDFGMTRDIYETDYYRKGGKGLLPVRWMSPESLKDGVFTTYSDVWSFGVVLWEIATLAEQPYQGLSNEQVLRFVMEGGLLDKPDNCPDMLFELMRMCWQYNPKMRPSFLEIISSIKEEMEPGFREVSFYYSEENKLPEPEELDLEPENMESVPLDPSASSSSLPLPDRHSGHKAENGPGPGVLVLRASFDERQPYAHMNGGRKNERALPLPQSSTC
Another experiment has as its target T2, Aurora kinase A (Homo sapiens, UniProt O14965).
T2 sequence (O14965 whole entry): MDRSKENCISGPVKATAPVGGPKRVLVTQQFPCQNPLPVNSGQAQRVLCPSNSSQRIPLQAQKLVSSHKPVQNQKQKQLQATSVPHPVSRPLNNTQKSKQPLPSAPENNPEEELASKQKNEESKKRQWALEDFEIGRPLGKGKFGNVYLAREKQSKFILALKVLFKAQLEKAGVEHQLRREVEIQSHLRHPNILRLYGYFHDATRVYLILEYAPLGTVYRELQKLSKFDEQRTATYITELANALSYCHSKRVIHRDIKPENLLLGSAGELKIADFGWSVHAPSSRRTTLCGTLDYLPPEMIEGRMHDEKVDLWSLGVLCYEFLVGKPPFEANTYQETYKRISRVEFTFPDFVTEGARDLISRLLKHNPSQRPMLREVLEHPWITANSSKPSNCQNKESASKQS
Nature of the experiment: Inhibition of Aurora A.

Experiment [5] addresses Mitogen-activated protein kinase 8 (Homo sapiens, UniProt P45983). Nature of the experiment: Inhibition of JNK1.
The target in experiment [6] is T3, Mitogen-activated protein kinase kinase kinase 5 (Homo sapiens, UniProt Q99683).
T3 sequence (Q99683 whole entry): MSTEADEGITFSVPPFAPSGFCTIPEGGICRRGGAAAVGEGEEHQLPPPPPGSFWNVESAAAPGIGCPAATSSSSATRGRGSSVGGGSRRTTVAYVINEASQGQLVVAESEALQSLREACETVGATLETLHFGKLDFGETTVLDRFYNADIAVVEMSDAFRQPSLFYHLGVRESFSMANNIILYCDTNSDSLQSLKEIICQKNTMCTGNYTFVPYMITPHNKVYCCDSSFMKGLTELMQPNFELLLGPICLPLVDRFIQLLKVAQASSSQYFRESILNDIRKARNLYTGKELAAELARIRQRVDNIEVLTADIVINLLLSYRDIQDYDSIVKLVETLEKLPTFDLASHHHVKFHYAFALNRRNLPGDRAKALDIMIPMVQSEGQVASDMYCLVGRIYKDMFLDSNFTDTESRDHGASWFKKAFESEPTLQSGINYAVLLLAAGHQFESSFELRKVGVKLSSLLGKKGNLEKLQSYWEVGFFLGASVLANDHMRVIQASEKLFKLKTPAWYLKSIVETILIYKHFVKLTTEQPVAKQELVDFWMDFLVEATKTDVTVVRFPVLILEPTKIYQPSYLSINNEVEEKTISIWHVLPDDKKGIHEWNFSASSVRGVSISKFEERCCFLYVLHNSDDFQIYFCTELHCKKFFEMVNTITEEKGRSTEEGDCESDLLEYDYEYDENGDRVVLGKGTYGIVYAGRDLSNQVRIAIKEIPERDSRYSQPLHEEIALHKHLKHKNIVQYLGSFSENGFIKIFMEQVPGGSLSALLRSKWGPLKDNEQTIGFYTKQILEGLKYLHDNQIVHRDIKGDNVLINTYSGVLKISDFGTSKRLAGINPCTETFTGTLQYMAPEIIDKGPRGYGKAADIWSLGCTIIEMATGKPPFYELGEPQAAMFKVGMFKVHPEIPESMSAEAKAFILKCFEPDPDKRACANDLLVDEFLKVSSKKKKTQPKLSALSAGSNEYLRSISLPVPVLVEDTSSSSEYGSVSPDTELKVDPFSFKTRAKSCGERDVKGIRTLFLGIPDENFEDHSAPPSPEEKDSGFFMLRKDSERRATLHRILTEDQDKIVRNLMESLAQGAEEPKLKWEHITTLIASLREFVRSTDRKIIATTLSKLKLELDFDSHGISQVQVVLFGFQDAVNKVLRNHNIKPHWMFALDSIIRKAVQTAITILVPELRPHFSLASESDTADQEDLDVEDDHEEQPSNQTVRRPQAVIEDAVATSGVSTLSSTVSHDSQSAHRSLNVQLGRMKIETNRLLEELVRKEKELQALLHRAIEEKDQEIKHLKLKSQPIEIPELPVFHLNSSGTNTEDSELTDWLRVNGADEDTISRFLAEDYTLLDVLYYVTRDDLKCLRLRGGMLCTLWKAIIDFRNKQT
In words: Inhibition of ASK1.

For experiment [7], the target named is T4, Inhibitor of nuclear factor kappa-B kinase subunit alpha (Homo sapiens, UniProt O15111).
T4 sequence (O15111 whole entry): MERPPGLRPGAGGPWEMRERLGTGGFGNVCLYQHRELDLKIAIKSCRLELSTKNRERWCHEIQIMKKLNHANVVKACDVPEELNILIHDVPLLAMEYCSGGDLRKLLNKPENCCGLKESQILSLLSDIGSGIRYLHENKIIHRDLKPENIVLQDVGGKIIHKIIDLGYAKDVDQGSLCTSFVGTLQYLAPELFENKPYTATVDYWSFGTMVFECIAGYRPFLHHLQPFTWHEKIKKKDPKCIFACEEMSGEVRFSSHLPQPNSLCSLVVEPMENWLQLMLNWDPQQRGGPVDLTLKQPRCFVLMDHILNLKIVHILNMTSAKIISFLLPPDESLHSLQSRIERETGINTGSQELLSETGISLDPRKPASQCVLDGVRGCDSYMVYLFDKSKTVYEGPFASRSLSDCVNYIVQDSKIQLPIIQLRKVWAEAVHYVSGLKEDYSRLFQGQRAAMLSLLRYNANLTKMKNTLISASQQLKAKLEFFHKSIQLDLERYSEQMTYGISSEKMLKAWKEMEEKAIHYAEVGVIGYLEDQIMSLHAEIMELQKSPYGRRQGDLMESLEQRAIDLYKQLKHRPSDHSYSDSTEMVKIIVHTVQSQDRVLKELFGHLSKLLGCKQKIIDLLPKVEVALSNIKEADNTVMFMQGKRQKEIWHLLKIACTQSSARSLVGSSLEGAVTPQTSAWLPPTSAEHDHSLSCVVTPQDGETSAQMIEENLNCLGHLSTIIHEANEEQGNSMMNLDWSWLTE
Nature of the experiment: Inhibition of IKK1.

The target of experiment [8] is T5, Serine/threonine-protein kinase Sgk1 (Homo sapiens, UniProt O00141).
T5 sequence (O00141 whole entry): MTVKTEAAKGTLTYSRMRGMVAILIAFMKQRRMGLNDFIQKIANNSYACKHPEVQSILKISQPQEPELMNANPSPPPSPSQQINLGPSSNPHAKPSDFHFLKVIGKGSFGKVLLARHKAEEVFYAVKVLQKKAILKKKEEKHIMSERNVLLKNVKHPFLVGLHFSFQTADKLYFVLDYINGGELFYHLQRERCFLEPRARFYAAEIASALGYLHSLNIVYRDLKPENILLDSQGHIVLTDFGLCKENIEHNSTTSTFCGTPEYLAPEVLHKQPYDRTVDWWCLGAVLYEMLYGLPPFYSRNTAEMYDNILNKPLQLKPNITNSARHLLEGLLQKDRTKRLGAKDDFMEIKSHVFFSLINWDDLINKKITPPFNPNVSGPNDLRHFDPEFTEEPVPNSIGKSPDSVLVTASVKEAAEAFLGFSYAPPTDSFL
Nature of the experiment: Inhibition of SGK1.

Experiment [9] concerns the target Cyclin-dependent kinase 2 (Homo sapiens, UniProt P24941). Nature of the experiment: Inhibition of CDK2.
The target in experiment [10] is T6, Tyrosine-protein kinase JAK3 (Homo sapiens, UniProt P52333).
T6 sequence (P52333 whole entry): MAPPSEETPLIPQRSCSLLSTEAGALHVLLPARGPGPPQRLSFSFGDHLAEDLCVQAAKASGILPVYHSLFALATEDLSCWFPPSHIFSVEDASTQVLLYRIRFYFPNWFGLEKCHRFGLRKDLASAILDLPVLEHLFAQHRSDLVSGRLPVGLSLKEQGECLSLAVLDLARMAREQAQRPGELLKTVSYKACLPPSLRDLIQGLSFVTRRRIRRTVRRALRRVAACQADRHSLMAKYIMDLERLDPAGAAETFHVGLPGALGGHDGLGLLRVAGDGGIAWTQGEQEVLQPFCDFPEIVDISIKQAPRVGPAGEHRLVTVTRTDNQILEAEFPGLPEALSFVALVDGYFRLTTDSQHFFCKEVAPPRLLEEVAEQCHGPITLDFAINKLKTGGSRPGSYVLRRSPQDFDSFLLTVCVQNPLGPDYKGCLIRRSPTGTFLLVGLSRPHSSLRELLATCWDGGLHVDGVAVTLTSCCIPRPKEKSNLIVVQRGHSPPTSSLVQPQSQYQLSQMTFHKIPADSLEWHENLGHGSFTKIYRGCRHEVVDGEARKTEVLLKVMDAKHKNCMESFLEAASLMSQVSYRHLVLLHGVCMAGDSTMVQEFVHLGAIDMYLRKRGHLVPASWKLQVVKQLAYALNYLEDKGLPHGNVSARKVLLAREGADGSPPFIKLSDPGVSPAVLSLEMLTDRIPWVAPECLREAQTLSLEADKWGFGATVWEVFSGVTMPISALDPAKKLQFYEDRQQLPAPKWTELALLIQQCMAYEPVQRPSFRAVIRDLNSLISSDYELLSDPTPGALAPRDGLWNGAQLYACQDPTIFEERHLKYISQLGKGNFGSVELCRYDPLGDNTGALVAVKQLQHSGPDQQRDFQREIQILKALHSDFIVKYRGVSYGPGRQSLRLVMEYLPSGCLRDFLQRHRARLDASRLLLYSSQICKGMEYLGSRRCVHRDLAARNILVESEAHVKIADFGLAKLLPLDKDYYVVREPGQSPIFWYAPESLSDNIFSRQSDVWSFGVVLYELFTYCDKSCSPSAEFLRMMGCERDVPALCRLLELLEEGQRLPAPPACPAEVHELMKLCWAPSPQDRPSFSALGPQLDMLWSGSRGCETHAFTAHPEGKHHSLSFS
Nature of the experiment: Inhibition of JAK3.

Experiment [11] addresses RAC-alpha serine/threonine-protein kinase (Homo sapiens, UniProt P31749). Nature of the experiment: Inhibition of AKT1.
Experiment [12] addresses T7, Serine/threonine-protein kinase Chk1 (Homo sapiens, UniProt O14757).
T7 sequence (O14757 whole entry): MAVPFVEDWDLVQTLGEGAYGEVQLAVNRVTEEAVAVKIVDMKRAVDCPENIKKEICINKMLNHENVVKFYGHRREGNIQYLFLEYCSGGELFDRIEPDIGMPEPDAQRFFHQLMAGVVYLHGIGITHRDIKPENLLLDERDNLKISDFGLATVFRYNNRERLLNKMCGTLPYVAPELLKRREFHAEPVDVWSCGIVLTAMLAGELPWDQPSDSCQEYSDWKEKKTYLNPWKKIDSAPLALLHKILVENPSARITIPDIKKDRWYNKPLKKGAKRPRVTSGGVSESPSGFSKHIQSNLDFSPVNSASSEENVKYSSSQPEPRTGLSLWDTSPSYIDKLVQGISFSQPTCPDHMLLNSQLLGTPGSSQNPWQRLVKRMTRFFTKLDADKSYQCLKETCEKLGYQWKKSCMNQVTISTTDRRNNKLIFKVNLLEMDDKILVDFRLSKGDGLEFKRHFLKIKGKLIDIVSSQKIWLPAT
Nature of the experiment: Inhibition of CHK1.

The next experiment deals with Insulin receptor (Homo sapiens, UniProt P06213). In words: Inhibition of INS.
In experiment [13] the target is T1, 3-phosphoinositide-dependent protein kinase 1. In words: Inhibition of human PDK1 preincubated with substrate biotinylated PDKtide for 30 mins measured after 4 hrs by Scintillation proximity assay. Background: Scintillation proximity formats need no separation of bound from free tracer.
Experiment [14] addresses Vascular endothelial growth factor receptor 2 (Homo sapiens, UniProt P35968). Nature of the experiment: Inhibition of VEGFR2.

Sequence of Mitogen-activated protein kinase 8 (P45983 whole entry): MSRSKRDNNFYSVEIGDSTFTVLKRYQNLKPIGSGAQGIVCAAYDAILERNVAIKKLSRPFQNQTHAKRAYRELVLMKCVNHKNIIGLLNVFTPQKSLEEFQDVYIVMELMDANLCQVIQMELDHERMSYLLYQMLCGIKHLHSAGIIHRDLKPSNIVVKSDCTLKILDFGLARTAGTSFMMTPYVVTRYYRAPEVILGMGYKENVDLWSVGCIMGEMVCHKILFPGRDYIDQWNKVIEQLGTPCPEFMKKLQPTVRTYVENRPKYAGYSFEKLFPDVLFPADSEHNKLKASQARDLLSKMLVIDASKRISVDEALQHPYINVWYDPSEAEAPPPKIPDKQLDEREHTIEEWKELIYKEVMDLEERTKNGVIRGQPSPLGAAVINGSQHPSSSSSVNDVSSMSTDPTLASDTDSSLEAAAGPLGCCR
Sequence of Ribosomal protein S6 kinase beta-1 (P23443 whole entry): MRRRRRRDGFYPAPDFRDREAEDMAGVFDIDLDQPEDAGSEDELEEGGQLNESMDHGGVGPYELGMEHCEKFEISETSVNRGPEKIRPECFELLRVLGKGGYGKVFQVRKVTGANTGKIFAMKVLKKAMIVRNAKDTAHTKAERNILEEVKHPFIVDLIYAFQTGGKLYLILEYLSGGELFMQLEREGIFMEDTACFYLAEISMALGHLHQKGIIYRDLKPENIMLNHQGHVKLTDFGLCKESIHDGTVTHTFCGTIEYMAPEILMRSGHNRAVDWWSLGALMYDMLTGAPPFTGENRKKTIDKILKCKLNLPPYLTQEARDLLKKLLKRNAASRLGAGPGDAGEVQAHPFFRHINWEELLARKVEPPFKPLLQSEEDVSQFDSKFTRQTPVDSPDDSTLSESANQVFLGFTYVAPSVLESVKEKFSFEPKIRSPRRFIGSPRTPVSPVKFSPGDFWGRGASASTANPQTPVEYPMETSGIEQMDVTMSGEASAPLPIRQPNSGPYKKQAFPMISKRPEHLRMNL
Sequence of Vascular endothelial growth factor receptor 2 (P35968 whole entry): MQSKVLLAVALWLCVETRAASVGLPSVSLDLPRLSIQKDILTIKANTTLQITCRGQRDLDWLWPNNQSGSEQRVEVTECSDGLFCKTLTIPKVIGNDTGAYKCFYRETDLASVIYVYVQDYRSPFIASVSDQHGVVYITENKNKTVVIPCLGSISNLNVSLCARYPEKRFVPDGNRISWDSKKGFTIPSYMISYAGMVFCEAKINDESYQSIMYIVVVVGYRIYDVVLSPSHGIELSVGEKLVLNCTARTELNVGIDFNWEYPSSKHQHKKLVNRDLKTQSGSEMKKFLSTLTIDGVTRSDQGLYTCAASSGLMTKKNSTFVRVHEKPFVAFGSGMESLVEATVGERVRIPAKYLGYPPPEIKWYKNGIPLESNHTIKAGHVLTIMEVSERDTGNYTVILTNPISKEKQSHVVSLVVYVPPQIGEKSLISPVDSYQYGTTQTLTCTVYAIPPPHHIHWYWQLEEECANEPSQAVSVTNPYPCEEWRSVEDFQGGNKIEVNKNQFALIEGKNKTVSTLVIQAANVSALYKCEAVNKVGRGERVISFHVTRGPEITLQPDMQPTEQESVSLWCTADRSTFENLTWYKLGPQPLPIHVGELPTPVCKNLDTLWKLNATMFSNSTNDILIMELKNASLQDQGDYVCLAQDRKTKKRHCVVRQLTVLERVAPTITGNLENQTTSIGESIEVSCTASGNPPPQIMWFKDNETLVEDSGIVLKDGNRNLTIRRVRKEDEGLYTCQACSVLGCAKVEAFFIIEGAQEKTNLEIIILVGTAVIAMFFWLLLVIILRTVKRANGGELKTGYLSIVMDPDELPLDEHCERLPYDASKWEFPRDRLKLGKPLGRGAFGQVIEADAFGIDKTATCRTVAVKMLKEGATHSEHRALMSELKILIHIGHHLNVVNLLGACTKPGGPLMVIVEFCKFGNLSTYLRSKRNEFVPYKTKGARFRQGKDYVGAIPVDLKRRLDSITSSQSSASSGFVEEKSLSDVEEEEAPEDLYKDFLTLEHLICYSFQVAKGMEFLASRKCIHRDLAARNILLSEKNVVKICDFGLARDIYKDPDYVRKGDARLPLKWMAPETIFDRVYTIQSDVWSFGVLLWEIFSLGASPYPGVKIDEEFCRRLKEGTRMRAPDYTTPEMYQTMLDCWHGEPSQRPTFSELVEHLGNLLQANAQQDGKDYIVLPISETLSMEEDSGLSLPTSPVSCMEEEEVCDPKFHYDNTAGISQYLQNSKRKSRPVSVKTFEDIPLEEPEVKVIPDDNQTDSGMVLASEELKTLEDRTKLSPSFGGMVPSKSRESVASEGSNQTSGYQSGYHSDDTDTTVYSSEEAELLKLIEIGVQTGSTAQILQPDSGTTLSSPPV
Sequence of RAC-alpha serine/threonine-protein kinase (P31749 whole entry): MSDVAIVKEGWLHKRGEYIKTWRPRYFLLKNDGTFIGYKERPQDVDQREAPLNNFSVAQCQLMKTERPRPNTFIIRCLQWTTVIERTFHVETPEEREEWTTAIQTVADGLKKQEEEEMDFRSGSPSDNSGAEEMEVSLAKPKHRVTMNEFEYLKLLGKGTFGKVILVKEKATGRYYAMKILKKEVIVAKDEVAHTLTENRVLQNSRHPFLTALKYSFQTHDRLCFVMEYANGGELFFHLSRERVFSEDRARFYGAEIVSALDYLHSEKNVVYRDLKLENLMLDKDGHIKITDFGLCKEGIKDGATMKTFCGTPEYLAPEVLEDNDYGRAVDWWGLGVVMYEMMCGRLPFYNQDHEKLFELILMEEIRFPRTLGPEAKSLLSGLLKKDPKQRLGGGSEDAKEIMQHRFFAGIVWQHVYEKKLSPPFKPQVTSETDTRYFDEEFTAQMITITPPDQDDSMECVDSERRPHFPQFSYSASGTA

For the compound `c1cc(-c2cc[nH]n2)ccn1`, the IC50 – broadly, the concentration needed to halve the response being measured – in experiment [1] came to 326 µM.
The same measure, in the same setting: next, `NC(=O)c1[nH]ncc1N`: 200 µM.
As for `NC(=O)c1cccc2cc[nH]c12`, inhibition in [1] was half-maximal at 97.5 µM (IC50).
Regarding `Nc1cc(-c2ccco2)n[nH]1`, the IC50 in experiment [1] is 313 µM. This IC50 is about 3.2-fold higher than that of the compound before.
As for `Nc1nccc(-c2ccc3c(N)n[nH]c3c2)n1`, the IC50 in experiment [2] was above 10 µM; in experiment [3], 6.34 µM; in experiment [4], above 10 µM; against Aurora kinase A it was 0.39 µM; in experiment [5], above 10 µM; in experiment [6], 5.69 µM. The IC50 is 0.1 µM in [7]; above 10 µM in experiment [8]; 0.28 µM in [9]; 0.99 µM in experiment [10]; above 10 µM in experiment [11]; above 10 µM in experiment [12]. Also, the IC50 at Insulin receptor is above 10 µM; in experiment [13], 0.37 µM; in experiment [14], 0.84 µM.
Compound `Nc1cc(-c2ccc3c(N)n[nH]c3c2)ccn1` gave an IC50 in [13] of 7.28 µM. That is a single-digit micromolar value.
`Nc1nc(N)c2[nH]cnc2n1` [2,6-DIAMINOPURINE]: inhibition in [1] was half-maximal at 50.8 µM (IC50).
Consider `c1ccc(-c2nccs2)cc1` [2-PHENYLTHIAZOLE], for which, in experiment [1], the IC50 was 95.1 µM.
On the same count and under the same terms, next, `Nc1cc2ccccc2cn1` [ISOQUINOLIN-3-AMINE]: 376 µM.

For the origin of these results see ChEMBL document CHEMBL1687694, “Aminoindazole PDK1 Inhibitors: A Case Study in Fragment-Based Drug Discovery” (ACS Med Chem Lett, 2010).
